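Method: 48-hour compound exposure of cells in 96-well plates, five concentrations, linear interpolation of endpoints. At the GI50, growth is halved.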 Calls of active or inactive are those of the source. Cut-off read from the data, not from the text of the source: active = GI50 up to about 1.1 µM and inactive = higher.
Experiments:
Experiment in all cases: inhibition of tumour cell growth, NCI panel, 48 h
COLO 205 = test system: COLO 205
DU-145 = test system: DU-145
HL-60 = test system: HL-60
HOP-92 = test system: HOP-92
HT-29 = test system: HT-29
Hs-578T = test system: Hs-578T
IGROV-1 = test system: IGROV-1
K562 = test system: K562
LOX IMVI = test system: LOX IMVI
M14 = test system: M14
NCI-H23 = test system: NCI-H23
NCI/ADR-RES = test system: NCI/ADR-RES
OVCAR-3 = test system: OVCAR-3
OVCAR-5 = test system: OVCAR-5
PC-3 = test system: PC-3
SF-268 = test system: SF-268
SK-MEL-28 = test system: SK-MEL-28
SK-MEL-5 = test system: SK-MEL-5
SK-OV-3 = test system: SK-OV-3
UACC-257 = test system: UACC-257

O=C1O[C@H]2[C@H](OC(=O)c3cc(O)c(O)c(O)c3)[C@@H](OC(=O)c3cc(O)c(O)c4c3[C@@H]3C1=CC(=O)C(O)(O)C3(O)O4)[C@H](OC(=O)c1cc(O)c(O)c(O)c1)O[C@@H]2COC(=O)c1cc(O)c(O)c(O)c1 (stereo not given in full) [TERCHEBIN]
GI50 (COLO 205): 39.5 µM (inactive)
GI50 (DU-145): 76 µM (inactive)
GI50 (HL-60): 26.7 µM (inactive)
GI50 (HOP-92): 47.8 µM (inactive)
GI50 (HT-29): 37.4 µM (inactive)
GI50 (Hs-578T): > 100 µM (inactive)
GI50 (IGROV-1): 47.8 µM (inactive)
GI50 (K562): 31.9 µM (inactive)
GI50 (LOX IMVI): 25.1 µM (inactive)
GI50 (M14): 60.7 µM (inactive)
GI50 (NCI-H23): 42.8 µM (inactive)
GI50 (NCI/ADR-RES): 53.2 µM (inactive)
GI50 (OVCAR-3): 39.5 µM (inactive)
GI50 (OVCAR-5): 65.6 µM (inactive)
GI50 (PC-3): 34.9 µM (inactive)
GI50 (SF-268): 59.3 µM (inactive)
GI50 (SK-MEL-28): > 100 µM (inactive)
GI50 (SK-MEL-5): 75.7 µM (inactive)
GI50 (SK-OV-3): 38.3 µM (inactive)
GI50 (UACC-257): > 100 µM (inactive)

COC1=CC(=O)c2c(O)c3c(c(O)c2C1=O)C=C(C)OC3O (stereo not given)
GI50 (COLO 205): 0.222 µM (active)
GI50 (DU-145): 1.01 µM (active)
GI50 (HL-60): 0.731 µM (active)
GI50 (HOP-92): 6.84 µM (inactive)
GI50 (HT-29): 0.541 µM (active)
GI50 (Hs-578T): 2.64 µM (inactive)
GI50 (IGROV-1): 1.98 µM (inactive)
GI50 (K562): 1.44 µM (inactive)
GI50 (LOX IMVI): 0.597 µM (active)
GI50 (M14): 0.281 µM (active)
GI50 (NCI-H23): 0.838 µM (active)
GI50 (NCI/ADR-RES): 1.51 µM (inactive)
GI50 (OVCAR-3): 1.03 µM (active)
GI50 (OVCAR-5): 2.43 µM (inactive)
GI50 (PC-3): 2.64 µM (inactive)
GI50 (SF-268): 2.18 µM (inactive)
GI50 (SK-MEL-28): 1.27 µM (inactive)
GI50 (SK-MEL-5): 0.269 µM (active)
GI50 (SK-OV-3): 8.45 µM (inactive)
GI50 (UACC-257): 0.24 µM (active)

CCOC(=O)N1N(c2ccccc2)C(=O)C1(c1ccccc1)c1ccccc1
GI50 (COLO 205): 80.9 µM (inactive)
GI50 (DU-145): > 100 µM (inactive)
GI50 (HL-60): 8.3 µM (inactive)
GI50 (HOP-92): 70.3 µM (inactive)
GI50 (HT-29): 22 µM (inactive)
GI50 (Hs-578T): > 100 µM (inactive)
GI50 (IGROV-1): > 100 µM (inactive)
GI50 (K562): 34.8 µM (inactive)
GI50 (LOX IMVI): 70.6 µM (inactive)
GI50 (M14): > 100 µM (inactive)
GI50 (NCI-H23): > 100 µM (inactive)
GI50 (NCI/ADR-RES): > 100 µM (inactive)
GI50 (OVCAR-3): 40.5 µM (inactive)
GI50 (OVCAR-5): > 100 µM (inactive)
GI50 (PC-3): 19.2 µM (inactive)
GI50 (SF-268): > 100 µM (inactive)
GI50 (SK-MEL-28): > 100 µM (inactive)
GI50 (SK-MEL-5): 33.8 µM (inactive)
GI50 (SK-OV-3): > 100 µM (inactive)
GI50 (UACC-257): > 100 µM (inactive)

CCOC(=O)N1CCC2(CC1)CC(=O)N(Nc1ccccc1)C2=O
GI50 (COLO 205): > 100 µM (inactive)
GI50 (DU-145): > 100 µM (inactive)
GI50 (HL-60): 28.9 µM (inactive)
GI50 (HOP-92): > 100 µM (inactive)
GI50 (HT-29): 90.2 µM (inactive)
GI50 (Hs-578T): 41.1 µM (inactive)
GI50 (IGROV-1): 79.8 µM (inactive)
GI50 (K562): 16.9 µM (inactive)
GI50 (LOX IMVI): 98.4 µM (inactive)
GI50 (M14): > 100 µM (inactive)
GI50 (NCI-H23): > 100 µM (inactive)
GI50 (NCI/ADR-RES): > 100 µM (inactive)
GI50 (OVCAR-3): > 100 µM (inactive)
GI50 (OVCAR-5): 91.6 µM (inactive)
GI50 (PC-3): 40.6 µM (inactive)
GI50 (SF-268): > 100 µM (inactive)
GI50 (SK-MEL-28): 74.3 µM (inactive)
GI50 (SK-MEL-5): > 100 µM (inactive)
GI50 (SK-OV-3): > 100 µM (inactive)
GI50 (UACC-257): > 100 µM (inactive)

O=S(=O)(/N=C(\NO)Nc1ccc(Cl)cc1)c1cccc2nsnc12
GI50 (COLO 205): 32.4 µM (inactive)
GI50 (DU-145): 41.3 µM (inactive)
GI50 (HL-60): 13.4 µM (inactive)
GI50 (HOP-92): 22.1 µM (inactive)
GI50 (HT-29): 39.2 µM (inactive)
GI50 (Hs-578T): 29.2 µM (inactive)
GI50 (IGROV-1): 28.1 µM (inactive)
GI50 (K562): 19.7 µM (inactive)
GI50 (LOX IMVI): 20.3 µM (inactive)
GI50 (M14): 35.4 µM (inactive)
GI50 (NCI-H23): 45.2 µM (inactive)
GI50 (NCI/ADR-RES): 46 µM (inactive)
GI50 (OVCAR-3): 18.7 µM (inactive)
GI50 (OVCAR-5): 26.9 µM (inactive)
GI50 (PC-3): 30.3 µM (inactive)
GI50 (SF-268): 34.4 µM (inactive)
GI50 (SK-MEL-28): 18.7 µM (inactive)
GI50 (SK-MEL-5): 14.8 µM (inactive)
GI50 (SK-OV-3): 76.2 µM (inactive)
GI50 (UACC-257): 31 µM (inactive)

Clc1ccc(Cc2nc3cc(Cl)ccc3o2)cc1
GI50 (COLO 205): 29.8 µM (inactive)
GI50 (DU-145): 60.8 µM (inactive)
GI50 (HL-60): 30.4 µM (inactive)
GI50 (HOP-92): 31.6 µM (inactive)
GI50 (HT-29): 26.8 µM (inactive)
GI50 (Hs-578T): 40.8 µM (inactive)
GI50 (IGROV-1): 23.8 µM (inactive)
GI50 (K562): 46.1 µM (inactive)
GI50 (LOX IMVI): 14 µM (inactive)
GI50 (M14): 34.8 µM (inactive)
GI50 (NCI-H23): 33 µM (inactive)
GI50 (NCI/ADR-RES): 31.9 µM (inactive)
GI50 (OVCAR-3): 22.4 µM (inactive)
GI50 (OVCAR-5): 39.4 µM (inactive)
GI50 (PC-3): 32.4 µM (inactive)
GI50 (SF-268): 43 µM (inactive)
GI50 (SK-MEL-28): 41.4 µM (inactive)
GI50 (SK-MEL-5): 15.3 µM (inactive)
GI50 (SK-OV-3): 23 µM (inactive)
GI50 (UACC-257): 33 µM (inactive)
